Tested on: recombinant NL-RLuc virus (HIV, NL4-3 derived) in MT-2 cells
Experiment: Inhibition of HIV replication (NL-RLuc virus in MT-2 cells, luciferase readout)
Type: cell-based
Details: 5 days of incubation, 10% FBS
Description: Inhibition of HIV Replication.
A recombinant NL-RLuc proviral clone was constructed in which a section of the nef gene from NL4-3 was replaced with the Renilla Luciferase gene. This virus is fully infectious and can undergo multiple cycles of replication in cell culture. In addition, the luciferous reporter provides a simple and easy method for quantitating the extent of virus growth and consequently, the antiviral activity of test compounds. The plasmid pNLRLuc contains the proviral NL-Rluc DNA cloned into pUC 18 at the PvuII site. The NL-RLuc virus was prepared by transfection of 293T cells with the plasmid pNLRLuc. Transfections were performed using the LipofectAMINE PLUS kit from Invitrogen (Carlsbad, Calif.) according to the manufacturer and the virus generated was titered in MT-2 cells. For susceptibility analyses, the titrated virus was used to infect MT-2 cells in the presence of compound, and after 5 days of incubation, cells were processed and quantitated for virus growth by the amount of expressed luciferase. […] Luciferase was quantitated using the Dual Luciferase kit from Promega (Madison, Wis.). Susceptibility of viruses to compounds was determined by incubation in the presence of serial dilutions of the compound. […]

Compound `Cc1ccc2c(c1)-c1cccc(c1)-c1nc3cc(C)c([C@H](OC(C)(C)C)C(=O)O)c(c3s1)-c1ccc3c(c1)C(CCCC[C@H](C)O2)CCO3` (single isomer, unassigned) [Example 1] has an EC50 of 5.62 µM.

Work on `Cc1ccc2c(c1)-c1cccc(c1)-c1nc3cc(C)c([C@H](OC(C)(C)C)C(=O)O)c(c3s1)-c1ccc3c(c1)C(CCCC[C@H](C)O2)CCO3` (single isomer, unassigned) [Example 2] yielded an EC50 of 0.35 µM.

— patent US9944656B2, “Benzothiazole macrocycles as inhibitors of human immunodeficiency virus replication” (priority 2014, dated 2018)
